# How the values were obtained:
# [1] = target: T1, PepT1 intestinal peptide transporter (Homo sapiens, UniProt P46059); assay: Active transport through the intestinal mucosa
# T1 sequence (P46059 1-708): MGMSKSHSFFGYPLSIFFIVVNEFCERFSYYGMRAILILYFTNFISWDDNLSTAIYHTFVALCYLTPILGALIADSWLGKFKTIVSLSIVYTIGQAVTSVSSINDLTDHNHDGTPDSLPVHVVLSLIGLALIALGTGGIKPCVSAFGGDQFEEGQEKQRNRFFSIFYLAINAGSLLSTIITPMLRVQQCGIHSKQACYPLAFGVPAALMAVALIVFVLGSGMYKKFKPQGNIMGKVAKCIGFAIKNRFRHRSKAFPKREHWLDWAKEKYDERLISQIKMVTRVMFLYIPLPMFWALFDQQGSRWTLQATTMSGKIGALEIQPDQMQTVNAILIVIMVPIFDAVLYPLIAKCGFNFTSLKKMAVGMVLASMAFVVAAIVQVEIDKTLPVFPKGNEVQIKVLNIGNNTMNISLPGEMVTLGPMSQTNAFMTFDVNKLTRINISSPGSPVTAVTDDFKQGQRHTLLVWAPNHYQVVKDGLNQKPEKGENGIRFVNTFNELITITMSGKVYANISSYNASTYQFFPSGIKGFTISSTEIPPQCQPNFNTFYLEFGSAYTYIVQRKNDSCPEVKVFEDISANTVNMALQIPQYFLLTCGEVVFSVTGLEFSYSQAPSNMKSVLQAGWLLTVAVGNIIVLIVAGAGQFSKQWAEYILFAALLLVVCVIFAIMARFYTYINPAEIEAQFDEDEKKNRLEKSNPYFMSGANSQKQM
# Male Zucker fa/fa rats [2] = assay: Day-night profile of glycemia and insulinemia, day 16 to day 17 of treatment; format: in vivo, rat
# Experimental: The parameters monitored were morning blood glucose and plasma insulin levels. […] An OGTT was performed finally on day 21 to monitor blood glucose and plasma insulin kinetics to assess changes in glucose tolerance. Glibenclamide (DAB 1996; R011150/33372) was donated by Berlin-Chemie (Berlin, Germany). Male Zucker (fa/fa) rats of the body weight class of 300 g were purchased from Charles River (Sulzfeld, Germany). […] Thereafter, the non-diabetic Wistar rats were treated orally once daily with RP (5 mg/kg b.w.) or TP (21.61 mg/kg b.w.) and the diabetic Zucker rats were treated orally once daily with RP (1 mg/kg b.w.) or TP (21.61 mg/kg b.w.) for 21 days at 05.00 p.m. (before regular food intake in the dark phase). The controls were given 1% cellulose solution orally (5 ml/kg). […] The oral drug therapy was continued for one week. […] Blood glucose: Glucose levels were measured using the glucose oxidase procedure (Super G Glukosemeβgerät; Dr. Müller Gerätebau, Freital, Germany). Plasma insulin: Insulin concentrations were assayed by the antibody RIA method (LINCO Research, Inc. St. Charles, Mo., USA).
# Male Zucker fa/fa rats [3] = assay: Repeated once-daily oral dosing: morning blood glucose and plasma insulin; format: in vivo, rat
# Experimental: The parameters monitored were morning blood glucose and plasma insulin levels. In a day-night profile, glycemia and insulinaemia were monitored from day 16 to day 17. An OGTT was performed finally on day 21 to monitor blood glucose and plasma insulin kinetics to assess changes in glucose tolerance. Glibenclamide (DAB 1996; R011150/33372) was donated by Berlin-Chemie (Berlin, Germany). Male Zucker (fa/fa) rats of the body weight class of 300 g were purchased from Charles River (Sulzfeld, Germany).
# Housing Conditions: Animals were kept single-housed under conventional conditions with controlled temperature (22±2° C.) on a 12/12 hours light/dark cycle (light on at 06:00 a.m.). Standard pellets (ssniff®, Soest, Germany) and tap water acidified with HCl were allowed ad libitum.
# Catheterization of Carotid Artery: After one week of adaptation carotid catheters were implanted in the rats under general anesthesia (injection of 0.25 ml/kg i.p. Rompun® [2%], Bayer, Germany) and 0.5 ml/kg i.p. Velonarkon® (Arzneimittelwerk Dresden, Germany). The animals were allowed to recover for one week. The catheter was flushed with heparin-saline (100 IU/ml) three times per week.
# Thereafter, the non-diabetic Wistar rats were treated orally once daily with RP (5 mg/kg b.w.) or TP (21.61 mg/kg b.w.) and the diabetic Zucker rats were treated orally once daily with RP (1 mg/kg b.w.) or TP (21.61 mg/kg b.w.) for 21 days at 05.00 p.m. (before regular food intake in the dark phase). The controls were given 1% cellulose solution orally (5 ml/kg). Blood samples were taken every morning at 07.30 a.m. from tail veins for measurement of blood glucose and plasma insulin. The last blood samples of this part of the program were taken at 07.30 a. m. on the 15th day to measure blood glucose and plasma insulin. The oral drug therapy was continued for one week. Recording the day-night profile under the above therapy blood glucose (Δt=3 h) and plasma insulin (Δt=3-6 h) were monitored from day 16 (at 05.00 p.m. beginning) to day 17 (at 02.00 p.m. end).
# Blood glucose: Glucose levels were measured using the glucose oxidase procedure (Super G Glukosemeβgerät; Dr. Müller Gerätebau, Freital, Germany).
# Plasma insulin: Insulin concentrations were assayed by the antibody RIA method (LINCO Research, Inc. St. Charles, Mo., USA).
substance,measurement,setting,value
isoleucyl thiazolidine hemifumarate [P32/98],Transport via the PepT1 intestinal peptide transporter,[1],actively transported
same,"Mean blood glucose, day-night profile","Male Zucker fa/fa rats [2]; 02.00 p.m. next day, RP 1 mg/kg, TP 21.61 mg/kg orally once daily",5.51 ± 0.19 mmol/L
same,"Plasma insulin, day-night profile",Male Zucker fa/fa rats [2]; 02.00 p.m. the next day,24.3 ± 3.7 ng/mL
same,"Plasma insulin, day-night profile",Male Zucker fa/fa rats [2]; 05.00 a.m. (maximum),57.1 ± 8.6 ng/mL
same,"Plasma insulin, day-night profile","Male Zucker fa/fa rats [2]; 05.00 p.m., RP 1 mg/kg, TP 21.61 mg/kg orally once daily",significantly lower than in the RP
same,"Mean blood glucose, day-night profile","Male Zucker fa/fa rats [2]; 08.00 a.m., TP 21.61 mg/kg orally once daily",5.64 ± 0.23 mmol/L
same,"Plasma insulin, day-night profile",Male Zucker fa/fa rats [2]; 08.00 p.m.,41.9 ± 8.5 ng/mL
same,"Mean blood glucose, day-night profile","Male Zucker fa/fa rats [2]; 11.00 a.m., RP 1 mg/kg, TP 21.61 mg/kg orally once daily",5.33 ± 0.14 mmol/L
same,"Mean blood glucose, day-night profile","Male Zucker fa/fa rats [2]; 11.00 p.m., RP 1 mg/kg, TP 21.61 mg/kg orally once daily",8.34 ± 0.47 mmol/L
same,Increase of glycemia from 05.00 p.m. to 11.00 p.m.,Male Zucker fa/fa rats [2]; day 16,about 3 mmol/l
same,"Individual blood glucose values, range","Male Zucker fa/fa rats [2]; day 16, 05.00 p.m.",4.34 to 6.07 mmol/L
same,"Mean blood glucose, day-night profile","Male Zucker fa/fa rats [2]; day 16, 05.00 p.m. before drug application, RP 1 mg/kg, TP 21.61 mg/kg orally once daily",5.25 ± 0.16 mmol/L
same,Blood glucose in the day-night profile,Male Zucker fa/fa rats [2]; given once daily,< 8.3 mmol/L
same,Economization (saving) of insulin compared to the control,"Male Zucker fa/fa rats [2]; obese Zucker rat, subchronic treatment",45%
same,Hyperinsulinemia,Male Zucker fa/fa rats [3]; given once daily,reduced
same,Morning blood glucose,Male Zucker fa/fa rats [3]; given once daily,normalized
same,Time until morning blood glucose was reduced to a normal value,Male Zucker fa/fa rats [3]; once daily oral,≤ 5 days
same,Plasma insulin during 14 days in comparison to the control animals,"Male Zucker fa/fa rats [3]; rat, in vivo",slightly decrease insulin concentration
